# Measurements as given in patent US20050208496A1, “Methods of testing for bronchial asthma or chronic obstructive pulmonary disease” (Genox Research, Inc., priority 2002, published 2005).
# Test system: respiratory epithelial cells
substance,measurement,setting,value
"IL-13: human IL-13 (Peprotech, Inc.) added to the medium at 50 ng/mL to stimulate respiratory epithelial cells","DD96 (31610_at) expression, fold change upon IL-13 stimulation","lot 1, Day 3, AI method",6.3 fold
same,"DKFZP564O0823 (41402_at) expression, fold change upon IL-13 stimulation","lot 1, Day 3, AI method",5 fold
same,DKFZP566J091 (57197_at) expression fold change,"lot 1, Day 3, AI method",9.4 fold
same,"DKFZp564N1116 (37784_at) expression, fold change upon IL-13 stimulation","lot 1, Day 3, AI method",6.4 fold
same,DNAJA1 (276_at) expression fold change upon IL-13 stimulation,"lot 1, Day 3, AI method",2 fold
same,DPYD (38220_at) expression fold change upon IL-13 stimulation,"lot 1, Day 3, AI method",2.7 fold
same,EMILIN-2 (51628_at) expression fold change,"lot 1, Day 3, AI method",2.1 fold
same,"FABP4 (38430_at) expression, fold change upon IL-13 stimulation","lot 1, Day 3, AI method",3.8 fold
same,FBP1 (36495_at) expression fold change upon IL-13 stimulation,"lot 1, Day 3, AI method",3.2 fold
same,FETUB (32620_at) expression fold change,"lot 1, Day 3, AI method",3.7 fold
same,FETUB (33101_g_at) expression fold change,"lot 1, Day 3, AI method",2.2 fold
same,FLJ10261 (43366_at) expression fold change,"lot 1, Day 3, AI method",7.9 fold
same,FLJ22693 (53777_at) expression fold change,"lot 1, Day 3, AI method",2.8 fold
same,FUT10 (908_at) expression fold change upon IL-13 stimulation,"lot 1, Day 3, AI method",5.8 fold
same,"G1P3 (1358_s_at) expression, fold change upon IL-13 stimulation","lot 1, Day 3, AI method",7.1 fold
same,GADD45G (39154_at) expression fold change upon IL-13 stimulation,"lot 1, Day 3, AI method",3.1 fold
same,GBP5 (52615_at) expression fold change,"lot 1, Day 3, AI method",2.4 fold
same,"GS3686 (36927_at) expression, fold change upon IL-13 stimulation","lot 1, Day 3, AI method",5.7 fold
same,HAS3 (54604_at) expression fold change,"lot 1, Day 3, AI method",2.3 fold
same,HDAC9 (37483_at) expression fold change upon IL-13 stimulation,"lot 1, Day 3, AI method",4.1 fold
same,"HLA-F (37420_i_at) expression, fold change upon IL-13 stimulation","lot 1, Day 3, AI method",2.9 fold
same,HLA-F (49203_f_at) expression fold change,"lot 1, Day 3, AI method",2.4 fold
same,HS3ST1 (41556_s_at) expression fold change upon IL-13 stimulation,"lot 1, Day 3, AI method",3.4 fold
same,ICAMt (32640_at) expression fold change upon IL-13 stimulation,"lot 1, Day 3, AI method",6.5 fold
same,"IFI27 (425_at) expression, fold change upon IL-13 stimulation","lot 1, Day 3, AI method",3.8 fold
same,IFI27 (48864_at) expression fold change,"lot 1, Day 3, AI method",2.9 fold
same,"IFI35 (464_s_at) expression, fold change upon IL-13 stimulation","lot 1, Day 3, AI method",13.2 fold
same,"IFI44 (37641_at) expression, fold change upon IL-13 stimulation","lot 1, Day 3, AI method",5.9 fold
same,"IFIT1 (915_at) expression, fold change upon IL-13 stimulation","lot 1, Day 3, AI method",19.2 fold
same,"IFIT1 (32814_at) expression, fold change upon IL-13 stimulation","lot 1, Day 3, AI method",10.6 fold
same,"IFIT4 (38584_at) expression, fold change upon IL-13 stimulation","lot 1, Day 3, AI method",2.7 fold
same,"IFITM1 (675_at) expression, fold change upon IL-13 stimulation","lot 1, Day 3, AI method",10.7 fold
same,IL13RA2 (1016_s_at) expression fold change upon IL-13 stimulation,"lot 1, Day 3, AI method",10.2 fold
same,IL19 (47855_at) expression fold change,"lot 1, Day 3, AI method",4 fold
same,"ILIRL1 (40322_at) expression, fold change upon IL-13 stimulation","lot 1, Day 3, AI method",5.5 fold
same,IRF7 (36412_s_at) expression fold change,"lot 1, Day 3, AI method",4.9 fold
same,"ISG15 (1107_s_at) expression, fold change upon IL-13 stimulation","lot 1, Day 3, AI method",13.1 fold
same,"ISG15 (38432_at) expression, fold change upon IL-13 stimulation","lot 1, Day 3, AI method",23.7 fold
same,"ISG20 (33304_at) expression, fold change upon IL-13 stimulation","lot 1, Day 3, AI method",4.8 fold
same,"KIAA0537 (33787_at) expression, fold change upon IL-13 stimulation","lot 1, Day 3, AI method",7.5 fold
same,KIAA1268 (57050_at) expression fold change,"lot 1, Day 3, AI method",3.2 fold
same,KIAAI268 (59516_at) expression fold change,"lot 1, Day 3, AI method",4.1 fold
same,"LAMP3 (37168_at) expression, fold change upon IL-13 stimulation","lot 1, Day 3, AI method",6.3 fold
same,LOC57118 (51085_at) expression fold change,"lot 1, Day 3, AI method",2.4 fold
same,"LOC64116 (40456_at) expression, fold change upon IL-13 stimulation","lot 1, Day 3, AI method",2.2 fold
same,MDA5 (51920_at) expression fold change,"lot 1, Day 3, AI method",6.6 fold
same,MFHAS1 (50388_at) expression fold change,"lot 1, Day 3, AI method",2.3 fold
same,"MICB (35937_at) expression, fold change upon IL-13 stimulation","lot 1, Day 3, AI method",3.3 fold
same,"MKP-L (38272_at) expression, fold change upon IL-13 stimulation","lot 1, Day 3, AI method",2 fold
same,"MMP7 (668_s_at) expression, fold change upon IL-13 stimulation","lot 1, Day 3, AI method",2.6 fold
same,MX2 (879_at) expression fold change,"lot 1, Day 3, AI method",8.7 fold
same,MXI (37014_at) expression fold change,"lot 1, Day 3, AI method",12.3 fold
same,NCF2 (41038_at) expression fold change,"lot 1, Day 3, AI method",2.9 fold
same,NK4 (39119_s_at) expression fold change upon IL-13 stimulation,"lot 1, Day 3, AI method",4 fold
same,NOS2A (1948_f_at) expression fold change upon IL-13 stimulation,"lot 1, Day 3, AI method",5.3 fold
same,NOS2A (48918_at) expression fold change,"lot 1, Day 3, AI method",4.3 fold
same,"OAF (39695_at) expression, fold change upon IL-13 stimulation","lot 1, Day 3, AI method",3.4 fold
same,OAS1 (38388_at) expression fold change upon IL-13 stimulation,"lot 1, Day 3, AI method",6.2 fold
same,OAS1 (38389_at) expression fold change upon IL-13 stimulation,"lot 1, Day 3, AI method",4.5 fold
same,OAS2 (39263_at) expression fold change upon IL-13 stimulation,"lot 1, Day 3, AI method",5 fold
same,OSF-2 (1451_s_at) expression fold change upon IL-13 stimulation,"lot 1, Day 3, AI method",10.5 fold
same,PHKB (46459_at) expression fold change,"lot 1, Day 3, AI method",2 fold
same,"PKD2 (38120_at) expression, fold change upon IL-13 stimulation","lot 1, Day 3, AI method",2.8 fold
same,PLOD2 (34795_at) expression fold change upon IL-13 stimulation,"lot 1, Day 3, AI method",2.3 fold
same,PLS1 (39951_at) expression fold change,"lot 1, Day 3, AI method",2.5 fold
same,PLSCR1 (32775_r_at) expression fold change upon IL-13 stimulation,"lot 1, Day 3, AI method",2.9 fold
same,PSMB9 (38287_at) expression fold change upon IL-13 stimulation,"lot 1, Day 3, AI method",3.2 fold
same,RIG-1 (59215_at) expression fold change,"lot 1, Day 3, AI method",7.2 fold
same,"SAMHD1 (34714_at) expression, fold change upon IL-13 stimulation","lot 1, Day 3, AI method",3.4 fold
same,SCYB10 (431_at) expression fold change upon IL-13 stimulation,"lot 1, Day 3, AI method",5.2 fold
same,SCYB11 (35061_at) expression fold change upon IL-13 stimulation,"lot 1, Day 3, AI method",8.9 fold
same,"SECTM1 (41045_at) expression, fold change upon IL-13 stimulation","lot 1, Day 3, AI method",6.5 fold
same,SERPINB2 (37185_at) expression fold change,"lot 1, Day 3, AI method",2.1 fold
same,SERPINB4 (1549_s_at) expression fold change,"lot 1, Day 3, AI method",4.2 fold
same,SERPINB6 (34789_at) expression fold change,"lot 1, Day 3, AI method",2.2 fold
same,SIAT1 (41352_at) expression fold change upon IL-13 stimulation,"lot 1, Day 3, AI method",4.7 fold
same,"SLC26A4, pendrin (36376_at) expression fold change","lot 1, Day 3, AI method",18.8 fold
same,"SSI-1 (41592_at) expression, fold change upon IL-13 stimulation","lot 1, Day 3, AI method",5.6 fold
same,STAT1 (32860_g_at) expression fold change,"lot 1, Day 3, AI method",2.8 fold
same,STAT1 (33338_at) expression fold change,"lot 1, Day 3, AI method",9.7 fold
same,STAT1 (33339_g_at) expression fold change,"lot 1, Day 3, AI method",3.5 fold
same,TGM2 (38404_at) expression fold change upon IL-13 stimulation,"lot 1, Day 3, AI method",8.5 fold
same,THBS1 (115_at) expression fold change upon IL-13 stimulation,"lot 1, Day 3, AI method",10.4 fold
same,"TSPAN-3 (38612_at) expression, fold change upon IL-13 stimulation","lot 1, Day 3, AI method",2.2 fold
same,TXNRD1 (39425_at) expression fold change upon IL-13 stimulation,"lot 1, Day 3, AI method",2 fold
same,UBE2L6 (40505_at) expression fold change upon IL-13 stimulation,"lot 1, Day 3, AI method",3.3 fold
same,"UFD1L (811_at) expression, fold change upon IL-13 stimulation","lot 1, Day 3, AI method",2.3 fold
same,WARS (38121_at) expression fold change upon IL-13 stimulation,"lot 1, Day 3, AI method",3.5 fold
same,"cig5 (38549_at) expression, fold change upon IL-13 stimulation","lot 1, Day 3, AI method",10.1 fold
same,"diubiquitin (39959_at) expression, fold change upon IL-13 stimulation","lot 1, Day 3, AI method",21.3 fold
same,AA149682 (51925_at) expression fold change,"lot 1, Day 3, IMM method",2.4 fold
same,AA541787 (52622_at) expression fold change,"lot 1, Day 3, IMM method",2.6 fold
same,"ADAM28 (35479_at) expression, fold change upon IL-13 stimulation","lot 1, Day 3, IMM method",4.8 fold
same,AI565105 (54886_at) expression fold change,"lot 1, Day 3, IMM method",2.2 fold
same,AI659927 (54033_at) expression fold change,"lot 1, Day 3, IMM method",8.3 fold
same,AI989346 (52327_s_at) expression fold change,"lot 1, Day 3, IMM method",2.3 fold
same,"ALOX15 (34636_at) expression, fold change upon IL-13 stimulation","lot 1, Day 3, IMM method",69.2 fold
same,ARL7 (57151_at) expression fold change,"lot 1, Day 3, IMM method",3.2 fold
same,AW019985 (48826_s_at) expression fold change,"lot 1, Day 3, IMM method",6 fold
same,BAL (52167_at) expression fold change,"lot 1, Day 3, IMM method",3.6 fold
same,BRCA1 (626_s_at) expression fold change,"lot 1, Day 3, IMM method",7.6 fold
same,"BST2 (39061_at) expression, fold change upon IL-13 stimulation","lot 1, Day 3, IMM method",8.3 fold
same,C21orf11 (58957_at) expression fold change,"lot 1, Day 3, IMM method",6.2 fold
same,CDH6 (1620_at) expression fold change upon IL-13 stimulation,"lot 1, Day 3, IMM method",4.2 fold
same,CDH6 (57421_at) expression fold change,"lot 1, Day 3, IMM method",4.7 fold
same,CDH26 (46916_at) expression fold change,"lot 1, Day 3, IMM method",16 fold
